Experimental data reported in patent US20160046618A1, “Cyclopropyl Fused Thiazin-2-Amine Compounds as Beta-Secretase Inhibitors and Methods of Use” (AMGEN INC., priority 2014, published 2016).
Where two headings read alike, the source gives them in different places.

Legend:
[1] = tested on: Aβ40 in conditioned medium of cells stably expressing Amyloid Precursor Protein (APP); test: In vitro BACE-1 cell-based assay (Aβ40 sandwich ELISA); conditions: read-out: IC50 IP (μM) BACE1 cell
Description: In Vitro BACE-1 Cell-Based Assay
The cell-based assay measures inhibition or reduction of Aβ40 in conditioned medium of test compound treated cells expressing amyloid precursor protein. Cells stably expressing Amyloid Precursor Protein (APP) were plated at a density of 40K cells/well in 96 well plates (Costar). The cells were cultivated for 24 hours at 37° C. and 5% CO2 in DMEM supplemented with 10% FBS. The test compounds were then added to cells in 10-point dose response concentrations with the starting concentration being either 100 μM or 10 μM. The compounds were diluted from stock solutions in DMSO and the final DMSO concentration of the test compounds on cells was 0.1%. After 24 h of incubation with the test compounds the supernatant conditioned media was collected and the Aβ40 levels were determined using a sandwich ELISA. The IC50 of the compound was calculated from the percent of control or percent inhibition of Aβ40 as a function of the concentration of the test compound.
The sandwich ELISA to detect Aβ40 was performed in 96 well microtiter plates, which were pre-treated with goat anti-rabbit IgG (Pierce). The capture and detecting antibody pair that were used to detect Aβ40 from cell supernatants were affinity purified pAb40 (Biosource) and biotinylated 6E10 (Signet Labs Inc.), respectively. The optimal concentration for the pAb40 antibody was 3 μg/ml in Superblock/TBS (Pierce) that was supplemented with 0.05% Tween 20 (Sigma). […] Cellular supernatants were incubated with the capture antibody for 3 h at 4° C., followed by 3 wash steps in TBS-tween (0.05%). The detecting antibody incubation was for 2 h at 4° C., again followed by the wash steps as described previously. The final readout of the ELISA is Time-Resolved Fluorescence (counts per minute) using Delfia reagents Streptavidin-Europium and Enhancement solutions (Perkin Elmer) and the Victor 2 multilabel counter (Perkin Elmer).

human recombinant BACE1 = human recombinant BACE1 (Homo sapiens (Human), UniProt P56817); test: In vitro enzymatic BACE1 FRET assay; type: biochemical; conditions: read-out: IC50 IP (μM) BACE1 enzyme
Chain of human recombinant BACE1 (P56817 46-501): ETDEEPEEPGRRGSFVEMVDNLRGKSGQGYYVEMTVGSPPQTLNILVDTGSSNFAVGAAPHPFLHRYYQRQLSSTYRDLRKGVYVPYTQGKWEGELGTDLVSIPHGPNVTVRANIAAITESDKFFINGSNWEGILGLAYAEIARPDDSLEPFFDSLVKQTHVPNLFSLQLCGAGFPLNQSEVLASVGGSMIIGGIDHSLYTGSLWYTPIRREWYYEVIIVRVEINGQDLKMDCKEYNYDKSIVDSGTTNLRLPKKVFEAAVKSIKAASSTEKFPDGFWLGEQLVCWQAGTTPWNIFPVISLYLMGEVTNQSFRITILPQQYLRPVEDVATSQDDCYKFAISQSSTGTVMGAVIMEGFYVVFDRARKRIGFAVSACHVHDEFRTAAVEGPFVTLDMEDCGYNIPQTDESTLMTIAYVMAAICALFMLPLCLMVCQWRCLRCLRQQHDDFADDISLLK
Description: (§1) These recombinant proteins were further purified using Ni-NTA affinity chromatography (Qiagen). […] This assay is effectively started by the addition of FRET substrate (50 nM) and the combination is incubated for one hour. The FRET assay is terminated by addition of Tris buffer, which raises the pH to neutrality, and the fluorescence is determined. The FRET substrate is a peptide with commercially available fluorophore and quencher, on opposite sides of the BACE cleavage site. Proteolytic cleavage of the FRET substrate releases quenching of fluorescence (excitation 488 nm and emission 590 nm).

human recombinant BACE2 = human recombinant BACE2 (Homo sapiens (Human), UniProt Q9Y5Z0); test: In vitro enzymatic BACE2 FRET assay; type: biochemical; conditions: read-out: IC50 IP (μM) BACE2 enzyme
Chain of human recombinant BACE2 (Q9Y5Z0 63-518): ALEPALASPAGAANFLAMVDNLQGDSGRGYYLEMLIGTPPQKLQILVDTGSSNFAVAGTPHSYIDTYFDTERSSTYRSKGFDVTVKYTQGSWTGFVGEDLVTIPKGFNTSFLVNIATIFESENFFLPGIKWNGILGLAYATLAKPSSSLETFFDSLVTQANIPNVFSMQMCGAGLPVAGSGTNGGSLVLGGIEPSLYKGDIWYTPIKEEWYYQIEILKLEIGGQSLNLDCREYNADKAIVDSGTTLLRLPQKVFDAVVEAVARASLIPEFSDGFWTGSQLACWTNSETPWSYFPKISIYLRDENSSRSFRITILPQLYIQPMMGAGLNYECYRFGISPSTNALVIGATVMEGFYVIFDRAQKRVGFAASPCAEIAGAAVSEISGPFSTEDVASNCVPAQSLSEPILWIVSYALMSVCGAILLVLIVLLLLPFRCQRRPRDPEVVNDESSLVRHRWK
Description: as §1

Recombinant Cat D = Recombinant Cat D (Homo sapiens (Human), UniProt P07339); test: In vitro enzymatic Cathepsin D (Cat D) FRET assay; type: biochemical; conditions: read-out: IC50 IP (μM) CatD
Chain of Recombinant Cat D (P07339 65-412): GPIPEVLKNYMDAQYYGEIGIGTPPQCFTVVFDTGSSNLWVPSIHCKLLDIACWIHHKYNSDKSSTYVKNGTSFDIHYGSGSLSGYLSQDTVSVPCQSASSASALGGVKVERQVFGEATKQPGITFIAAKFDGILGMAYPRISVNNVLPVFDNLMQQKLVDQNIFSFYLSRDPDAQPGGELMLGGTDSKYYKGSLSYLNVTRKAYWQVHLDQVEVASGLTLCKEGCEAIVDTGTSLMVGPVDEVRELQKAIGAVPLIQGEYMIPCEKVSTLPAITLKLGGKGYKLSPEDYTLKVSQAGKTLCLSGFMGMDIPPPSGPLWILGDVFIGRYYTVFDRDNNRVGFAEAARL
Description: In Vitro Enzymatic Cathepsin D (Cat D) FRET (Fluorescence Resonance Energy Transfer) Assay
Recombinant Cat D was expressed in CHO cells. The assay buffer for CathepsinD is 0.05 M citrate pH 3.5, 10% DMSO final, 5 mM CHAPS. […] The assays are effectively started by the addition of different FRET substrates (20 nM for Cat D) and the combination is incubated for one hour. The FRET assay is terminated with by addition of Tris buffer, which raises the pH to neutrality, and the fluorescence is determined. The FRET substrate is a peptide with commercially available fluorophore and quencher, on opposite sides of the BACE cleavage site. The Cat D substrate peptide sequence is based on sequence #1 of Table 1 from Gulnik et al. FEBS Letters v413 p 379-384 1997. Proteolytic cleavage of the FRET substrate releases quenching of fluorescence (Cat D excitation 500 nm and emission 580 nm).

IC50 [1] | IC50 (human recombinant BACE1) | IC50 (human recombinant BACE2) | IC50 (Recombinant Cat D) | IC50 ([1]; BACE1 cell-based assay) | IC50 (human recombinant BACE1; BACE1 FRET enzyme assay) | IC50 (human recombinant BACE2; BACE2 FRET enzyme assay) | IC50 (Recombinant Cat D; Cathepsin D FRET enzyme assay) | SMILES
0.0179 µM | 0.00107 µM | 0.282 µM | 2690 µM | – | – | – | – | C#C[C@H](C)Oc1cnc2c(Nc3ccc(F)c([C@@]4(CF)N=C(N)S[C@@]5(CF)C[C@H]54)c3)nccc2n1 [Example 879, N-(3-((1S,5S,6S)-3-amino-1,5-bis(fluoromethyl)-2-thia-4-azabicyclo[4.1.0]hept-3-en-5-yl)-4-fluorophenyl)-2-(((1S)-1-methyl-2-propyn-1-yl)oxy)pyrido[3,4-b]pyrazin-5-amine]
0.0039 µM | 0.0047 µM | 0.17 µM | > 400 µM | – | – | – | – | COC[C@]12C[C@H]1[C@@](C)(c1cc(NC(=O)c3cnc(OCC4(C)CC4)cn3)cc(F)c1F)N=C(N)S2 [Example 1061, N-(3-((1S,5S,6S)-3-amino-1-(methoxymethyl)-5-methyl-2-thia-4-azabicyclo[4.1.0]hept-3-en-5-yl)-4,5-difluorophenyl)-5-((1-methylcyclopropyl)methoxy)-2-pyrazinecarboxamide]
0.0411 µM | 0.0011 µM | 0.0278 µM | 136 µM | – | – | – | – | Cc1nc(COc2cnc3c(Nc4cc(F)c(F)c([C@@]5(C)N=C(N)S[C@@]6(C(F)F)C[C@@H]56)c4)nccc3n2)c(C)o1 [Example 886, N-(3-((1S,5S,6S)-3-amino-1-(difluoromethyl)-5-methyl-2-thia-4-azabicyclo[4.1.0]hept-3-en-5-yl)-4,5-difluorophenyl)-2-((2,5-dimethyl-1,3-oxazol-4-yl)methoxy)pyrido[3,4-b]pyrazin-5-amine]
0.014 µM | 0.00311 µM | < 0.00203 µM | 753 µM | – | – | – | – | CC(C)(O)[C@@]12SC(N)=N[C@](C)(c3cc(NC(=O)c4ccc(Cl)cn4)ccc3F)[C@@H]1C2(F)F [Example 711, N-(3-((1S,5S,6R)-3-amino-7,7-difluoro-1-(1-hydroxy-1-methylethyl)-5-methyl-2-thia-4-azabicyclo[4.1.0]hept-3-en-5-yl)-4-fluorophenyl)-5-chloro-2-pyridinecarboxamide]
0.0194 µM | 0.00344 µM | 0.466 µM | > 400 µM | – | – | – | – | C[C@]1(c2cc(NC(=O)c3ccc(OCC(F)(F)C(F)F)cn3)cnc2F)N=C(N)S[C@@]2(CF)C[C@H]21 [Example 609, N-(5-((1S,5S,6S)-3-amino-1-(fluoromethyl)-5-methyl-2-thia-4-azabicyclo[4.1.0]hept-3-en-5-yl)-6-fluoro-3-pyridinyl)-5-(2,2,3,3-tetrafluoropropoxy)-2-pyridinecarboxamide]
– | – | – | – | 0.00216 µM | 0.00062 µM | 0.0435 µM | 1550 µM | CC#CCOc1cnc(C(=O)Nc2cc(F)c(F)c([C@@]3(C)N=C(N)S[C@@]4(CO)C[C@H]43)c2)c(C)c1 [Example 85, N-(3-((1S,5S,6S)-3-amino-1-(hydroxymethyl)-5-methyl-2-thia-4-azabicyclo[4.1.0]hept-3-en-5-yl)-4,5-difluorophenyl)-5-(2-butyn-1-yloxy)-3-methyl-2-pyridinecarboxamide]
0.00737 µM | 0.00165 µM | 0.0383 µM | 1110 µM | – | – | – | – | C#CCOc1cnc2c(Nc3cnc(F)c([C@@]4(C)N=C(N)S[C@@]5([C@H](O)C(F)(F)F)C[C@H]54)c3)ncnc2c1 [Example 665, (1R)-1-((1S,5S,6S)-3-amino-5-(2-fluoro-5-((7-(2-propyn-1-yloxy)pyrido[3,2-d]pyrimidin-4-yl)amino)-3-pyridinyl)-5-methyl-2-thia-4-azabicyclo[4.1.0]hept-3-en-1-yl)-2,2,2-trifluoroethanol]
0.000715 µM | 0.000294 µM | 0.0272 µM | 4.72 µM | – | – | – | – | C#CCOc1cnc(C(=O)Nc2ccc(F)c([C@@]3(C)N=C(N)S[C@@]4(C(=O)NC(C)(C)C)C[C@H]43)c2)cn1 [Example 798, (1S,5S,6S)-3-amino-N-tert-butyl-5-(2-fluoro-5-(((5-(2-propyn-1-yloxy)-2-pyrazinyl)carbonyl)amino)phenyl)-5-methyl-2-thia-4-azabicyclo[4.1.0]hept-3-ene-1-carboxamide]
0.0109 µM | 0.00102 µM | 0.00913 µM | 613 µM | – | – | – | – | C#CCOc1cnc2c(Nc3ccc(F)c([C@@]4(C)N=C(N)S[C@]5([C@H](C)O)[C@H]4C5(F)F)c3)nccc2n1 [Example 714, (1S)-1-((1S,5S,6R)-3-amino-7,7-difluoro-5-(2-fluoro-5-((2-(2-propyn-1-yloxy)pyrido[3,4-b]pyrazin-5-yl)amino)phenyl)-5-methyl-2-thia-4-azabicyclo[4.1.0]hept-3-en-1-yl)ethanol]
– | – | – | – | 0.00596 µM | 0.00227 µM | < 0.00203 µM | > 400 µM | NC1=N[C@](CF)(c2cc(NC(=O)c3ccc(Cl)cn3)ccc2F)[C@@H]2C[C@]2(CF)S1 [Example 41, N-(3-((1S,5S,6S)-3-amino-1,5-bis(fluoromethyl)-2-thia-4-azabicyclo[4.1.0]hept-3-en-5-yl)-4-fluorophenyl)-5-chloro-2-pyridinecarboxamide]
0.00301 µM | 0.0019 µM | 0.0404 µM | 246 µM | – | – | – | – | C[C@]1(c2cc(Nc3ncnc4cc(OCc5ncco5)cnc34)ccc2F)N=C(N)S[C@]2(CO)[C@H]1C2(F)F [Example 750, ((1S,5S,6R)-3-amino-7,7-difluoro-5-(2-fluoro-5-((7-(1,3-oxazol-2-ylmethoxy)pyrido[3,2-d]pyrimidin-4-yl)amino)phenyl)-5-methyl-2-thia-4-azabicyclo[4.1.0]hept-3-en-1-yl)methanol]
0.0095 µM | 0.0078 µM | 0.152 µM | – | – | – | – | – | C#CCCOc1cnc(C(=O)Nc2ccc(F)c([C@@]3(C)N=C(N)S[C@@]4(COC)C[C@H]43)c2)cn1 [Example 1048, N-(3-((1S,5S,6S)-3-amino-1-(methoxymethyl)-5-methyl-2-thia-4-azabicyclo[4.1.0]hept-3-en-5-yl)-4-fluorophenyl)-5-(3-butyn-1-yloxy)-2-pyrazinecarboxamide]
– | – | – | – | 0.0548 µM | 0.026 µM | – | 863 µM | COc1cnc(C(=O)Nc2cc(F)c(F)c([C@@]3(CF)N=C(N)S[C@H]4C[C@H]43)c2)c(C)n1 [Example 17, N-(3-((1S,5S,6S)-3-amino-5-(fluoromethyl)-2-thia-4-azabicyclo[4.1.0]hept-3-en-5-yl)-4,5-difluorophenyl)-5-methoxy-3-methyl-2-pyrazinecarboxamide]
– | – | – | – | 0.571 µM | 0.0025 µM | – | 48.7 µM | CCOC(=O)[C@]12C[C@H]1[C@@](C)(c1cc(Nc3nccc4cc(Cl)cnc34)cc(F)c1F)N=C(N)S2 [Example 25, (1S,5S,6S)-ethyl 3-amino-5-(5-((3-chloro-1,7-naphthyridin-8-yl)amino)-2,3-difluorophenyl)-5-methyl-2-thia-4-azabicyclo[4.1.0]hept-3-ene-1-carboxylate]
– | – | – | – | 0.0169 µM | 0.0172 µM | – | 34.3 µM | NC1=N[C@](CF)(c2cc(NC(=O)c3ccc(Cl)cn3)cc(F)c2F)[C@@H]2C[C@@H]2S1 [Example 18, N-(3-((1S,5S,6S)-3-amino-5-(fluoromethyl)-2-thia-4-azabicyclo[4.1.0]hept-3-en-5-yl)-4,5-difluorophenyl)-5-chloropicolinamide]
